Patent US20240336572A1, “SUBSTITUTED INDAZOLE PROPIONIC ACID DERIVATIVE COMPOUNDS AND USES THEREOF” (Pfizer Inc., priority 2023, published 2024)

Columns and labels:
AMPK 221 = molecular target: T1, AMPK 221 (Homo sapiens, UniProt O43741+P54646); assay: Biochemical profiling of AMPK activators by AMPK221 (HTRF/TR-FRET assay, SAMS peptide, PP2A dephosphorylation protection); conditions: for EC50: phosphorylated AMPK 221 (α2β2δ1), 11 point dilution, duplicate, 4-parameter fit; for Emax: phosphorylated AMPK 221, maximal activation
T1 construct: open reading frames encoding the full-length α2, β2 and δ1 subunits of human AMPK; made in house; host or cells: E. coli BL21-CodonPlus (DE3)-RIPL, pET-14b
Method: (§1) The biochemical EC50 (half-maximal concentration required for full activation) of compounds for the activation of AMPK was evaluated by HTRF assay using LANCE Ultra ULight-Acetyl-CoA Carboxylase (SAMS) peptide (commercially available, Perkin Elmer catalog TRF0133-M).
The reaction was terminated after 60 minutes incubation at room temperature by the addition of 5 μL of stop and detection cocktail, which consisted of 1× Perkin Elmer Lance buffer (Perkin Elmer catalog number CR97-100), 40 mM EDTA (Thermo Fisher catalog number BP2482-100), and 2 nM Eu-anti-Acetyl CoA Carboxylase [pSer70] antibody (Perkin Elmer, TRF0208-M). Plates were spun at 1000 RPM, 10 seconds.

AMPK 111 = molecular target: T2, AMPK 111 (Homo sapiens, UniProt Q13131+Q9Y478); assay: Biochemical profiling of AMPK activators by AMPK111 (HTRF/TR-FRET assay, SAMS peptide, PP2A dephosphorylation protection); conditions: for EC50: phosphorylated AMPK 111 (α1β1δ1 as printed), 11 point dilution, duplicate, 4-parameter fit; for Emax: phosphorylated AMPK 111, maximal activation
T2 construct: open reading frames encoding the full-length α1, β1 and δ1 subunits of human AMPK; made in house; host or cells: E. coli BL21-CodonPlus (DE3)-RIPL, pET-14b
Method: as §1
Following a fifteen-minute room temperature incubation, 5 μL of 30 nM protein phosphatase PP2A (isolation detailed above) diluted in the assay buffer was added to the plate, to dephosphorylate pThr172 of AMPK. […] The reaction was terminated after 60 minutes incubation at room temperature, by the addition of 5 μL of stop and detection cocktail, which consisted of 1× Perkin Elmer Lance buffer (Perkin Elmer catalog number CR97-100), 40 mM EDTA (Thermo Fisher catalog number BP2482-100), and 2 nM Eu-anti-Acetyl CoA Carboxylase [pSer70] antibody (Perkin Elmer, TRF0208-M).

T1 sequence (P54646 whole entry): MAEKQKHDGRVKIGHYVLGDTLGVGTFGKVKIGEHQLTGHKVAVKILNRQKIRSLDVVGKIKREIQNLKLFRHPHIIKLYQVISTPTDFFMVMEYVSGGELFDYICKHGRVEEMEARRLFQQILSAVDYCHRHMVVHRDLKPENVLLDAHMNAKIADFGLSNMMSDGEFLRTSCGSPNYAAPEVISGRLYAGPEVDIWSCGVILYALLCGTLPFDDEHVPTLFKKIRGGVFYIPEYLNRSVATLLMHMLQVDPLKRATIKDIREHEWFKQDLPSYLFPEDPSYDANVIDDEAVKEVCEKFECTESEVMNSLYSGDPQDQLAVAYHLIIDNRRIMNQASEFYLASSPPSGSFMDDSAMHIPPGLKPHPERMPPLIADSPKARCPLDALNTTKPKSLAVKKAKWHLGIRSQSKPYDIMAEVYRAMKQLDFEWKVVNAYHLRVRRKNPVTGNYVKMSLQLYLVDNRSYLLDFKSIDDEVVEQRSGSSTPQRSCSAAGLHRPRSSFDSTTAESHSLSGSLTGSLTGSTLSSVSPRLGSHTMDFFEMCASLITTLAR
T1 sequence (O43741 whole entry): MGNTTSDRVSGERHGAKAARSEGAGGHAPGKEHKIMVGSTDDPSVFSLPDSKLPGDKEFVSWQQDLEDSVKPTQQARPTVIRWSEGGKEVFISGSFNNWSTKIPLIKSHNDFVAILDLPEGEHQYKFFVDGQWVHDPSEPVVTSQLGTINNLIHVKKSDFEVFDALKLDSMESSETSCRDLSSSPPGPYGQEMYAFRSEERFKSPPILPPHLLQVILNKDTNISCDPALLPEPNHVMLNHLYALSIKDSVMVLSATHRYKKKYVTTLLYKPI
T1 sequence (P54619 whole entry partner): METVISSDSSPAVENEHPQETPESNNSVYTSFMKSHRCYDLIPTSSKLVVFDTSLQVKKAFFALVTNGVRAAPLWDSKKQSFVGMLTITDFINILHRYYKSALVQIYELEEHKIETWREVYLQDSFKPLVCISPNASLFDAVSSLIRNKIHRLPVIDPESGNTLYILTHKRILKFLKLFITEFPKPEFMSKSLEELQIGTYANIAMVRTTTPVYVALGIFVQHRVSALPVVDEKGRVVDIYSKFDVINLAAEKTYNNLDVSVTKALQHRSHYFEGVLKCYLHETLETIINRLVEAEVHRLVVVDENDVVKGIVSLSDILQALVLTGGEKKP
T2 sequence (Q13131 whole entry): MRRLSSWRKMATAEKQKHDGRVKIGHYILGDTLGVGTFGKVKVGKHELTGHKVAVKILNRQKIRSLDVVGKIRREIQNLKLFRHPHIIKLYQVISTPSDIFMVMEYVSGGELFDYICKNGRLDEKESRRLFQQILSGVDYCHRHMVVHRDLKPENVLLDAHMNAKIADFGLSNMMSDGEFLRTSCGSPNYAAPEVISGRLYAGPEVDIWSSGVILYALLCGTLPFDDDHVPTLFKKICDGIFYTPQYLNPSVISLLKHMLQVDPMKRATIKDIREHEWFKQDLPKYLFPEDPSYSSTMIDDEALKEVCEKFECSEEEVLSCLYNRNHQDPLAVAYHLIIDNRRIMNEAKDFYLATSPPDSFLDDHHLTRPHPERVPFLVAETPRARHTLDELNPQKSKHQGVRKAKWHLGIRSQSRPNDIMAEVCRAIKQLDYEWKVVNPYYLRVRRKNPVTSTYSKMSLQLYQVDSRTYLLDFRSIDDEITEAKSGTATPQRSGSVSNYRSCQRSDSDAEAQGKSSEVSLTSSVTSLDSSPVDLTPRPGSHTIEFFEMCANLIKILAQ
T2 sequence (Q9Y478 whole entry): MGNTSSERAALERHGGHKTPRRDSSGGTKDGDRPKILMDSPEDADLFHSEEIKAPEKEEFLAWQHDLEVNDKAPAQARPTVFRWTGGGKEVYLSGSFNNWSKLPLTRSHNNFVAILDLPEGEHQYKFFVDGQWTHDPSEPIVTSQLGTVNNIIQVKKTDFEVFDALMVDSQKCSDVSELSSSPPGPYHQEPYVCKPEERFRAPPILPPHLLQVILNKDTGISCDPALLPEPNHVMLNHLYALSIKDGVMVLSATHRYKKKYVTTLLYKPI
T2 sequence (P54619 whole entry partner): as the sequence (P54619 whole entry partner) above

| Compound | EC50 (AMPK 221) | Emax (AMPK 221) | EC50 (AMPK 111) | Emax (AMPK 111) |
| --- | --- | --- | --- | --- |
| O=C(O)CCc1n[nH]c2cc(Cl)c(-c3ccc(-c4ccccc4O)cc3F)cc12 [Example 3, 3-(6-Chloro-5-(3-fluoro-2′-hydroxy-[1,1′-biphenyl]-4-yl)-1H-indazol-3-yl)propanoic acid] | 528 nM | 61% | 189 nM | 83% |
| Cc1ccc(-c2ccc(-c3cc4c(CCC(=O)O)n[nH]c4cc3Cl)cc2)c(O)c1 [Example 34, 3-(6-chloro-5-(2′-hydroxy-4′-methyl-[1,1′-biphenyl]-4-yl)-1H-indazol-3-yl)propanoic acid] | 197 nM | 50% | 228 nM | 68% |
| NC(=O)CSc1ccc(-c2ccc(-c3cc4c(CCC(=O)O)n[nH]c4cc3Cl)cc2)cc1 [Example 17, 3-(5-(4′-((2-amino-2-oxoethyl)thio)-[1,1′-biphenyl]-4-yl)-6-chloro-1H-indazol-3-yl)propanoic acid] | 83 nM | 49% | 34 nM | 80% |
| NC(c1ccc(-c2ccc(-c3cc4c(CCC(=O)O)n[nH]c4cc3Cl)cc2)c(O)c1)C(F)(F)F (stereo not shown) [Example 13, 3-(5-(4′-(1-amino-2,2,2-trifluoroethyl)-2′-hydroxy-[1,1′-biphenyl]-4-yl)-6-chloro-1H-indazol-3-yl)propanoic acid] | 69 nM | 67% | 21 nM | 86% |
| COc1c(F)ccc(-c2ccc(-c3cc4c(CCC(=O)O)n[nH]c4cc3Cl)cc2)c1O [Example 16, 3-(6-chloro-5-(4′-fluoro-2′-hydroxy-3′-methoxy-[1,1′-biphenyl]-4-yl)-1H-indazol-3-yl)propanoic acid] | 81 nM | 64% | 37 nM | 86% |
| NS(=O)(=O)c1ccc(-c2ccc(-c3cc4c(CCC(=O)O)n[nH]c4cc3Cl)cc2)cc1 [Example 40, 3-(6-chloro-5-(4′-sulfamoyl-[1,1′-biphenyl]-4-yl)-1H-indazol-3-yl)propanoic acid] | 306 nM | 68% | 92 nM | 85% |
| COc1ccc(Cl)c(-c2ccc(-c3cc4c(CCC(=O)O)n[nH]c4cc3Cl)cc2)c1O [Example 14, 3-(6-chloro-5-(6′-chloro-2′-hydroxy-3′-methoxy-[1,1′-biphenyl]-4-yl)-1H-indazol-3-yl)propanoic acid] | 72 nM | 65% | 45 nM | 74% |
| CN(C)C(=O)c1ccc(-c2ccc(-c3cc4c(CCC(=O)O)n[nH]c4cc3Cl)cc2)c(O)c1 [Example 12, 3-(6-chloro-5-(4′-(dimethylcarbamoyl)-2′-hydroxy-[1,1′-biphenyl]-4-yl)-1H-indazol-3-yl)propanoic acid] | 62 nM | 56% | 16 nM | 72% |
| NS(=O)(=O)c1ccc(-c2ccc(-c3cc4c(CCC(=O)O)n[nH]c4cc3Cl)cc2)c(O)c1 [Example 9, 3-(6-chloro-5-(2′-hydroxy-4′-sulfamoyl-[1,1′-biphenyl]-4-yl)-1H-indazol-3-yl)propanoic acid] | 41 nM | 68% | 11 nM | 90% |
| COC(=O)c1ccc(-c2ccc(-c3cc4c(CCC(=O)O)n[nH]c4cc3Cl)cc2)c(O)c1 [Example 31, 3-(6-Chloro-5-(2′-hydroxy-4′-(methoxycarbonyl)-[1,1′-biphenyl]-4-yl)-1H-indazol-3-yl)propanoic acid] | 190 nM | 61% | 57 nM | 84% |
| NC(=O)c1ccc(-c2ccc(-c3cc4c(CCC(=O)O)n[nH]c4cc3Cl)cc2)c(O)c1 [Example 6, 3-(5-(4′-Carbamoyl-2′-hydroxy-[1,1′-biphenyl]-4-yl)-6-chloro-1H-indazol-3-yl)propanoic acid] | 4 nM | 53% | 6 nM | 64% |

The remaining lines, values ahead:

| EC50 (AMPK 221) | Emax (AMPK 221) | EC50 (AMPK 111) | Emax (AMPK 111) | Compound |
| --- | --- | --- | --- | --- |
| 337 nM | 55% | 153 nM | 76% | O=C(O)CCc1n[nH]c2cc(Cl)c(-c3ccc(-c4c(O)cccc4F)cc3)cc12 [Example 50, 3-(6-chloro-5-(2′-fluoro-6′-hydroxy-[1,1′-biphenyl]-4-yl)-1H-indazol-3-yl)propanoic acid] |
| 282 nM | 59% | 113 nM | 83% | O=C(O)CCc1n[nH]c2cc(Cl)c(-c3ccc(-c4ccc(F)cc4O)cc3)cc12 [Example 47, 3-(6-chloro-5-(4′-fluoro-2′-hydroxy-[1,1′-biphenyl]-4-yl)-1H-indazol-3-yl)propanoic acid] |
| 644 nM | 55% | 218 nM | 69% | Cn1c(O)nc2cc(-c3ccc(-c4cc5c(CCC(=O)O)n[nH]c5cc4Cl)cc3)ccc21 [Example 53, 3-(6-chloro-5-(4-(2-hydroxy-1-methyl-1H-benzo[d]imidazol-5-yl)phenyl)-1H-indazol-3-yl)propanoic acid] |
| 82 nM | 58% | 70 nM | 66% | O=C(O)CCc1n[nH]c2cc(Cl)c(-c3ccc(-c4ccc(C(=O)NCCCO)cc4)cc3)cc12 [Example 77, 3-(6-chloro-5-(4′-((3-hydroxypropyl)carbamoyl)-[1,1′-biphenyl]-4-yl)-1H-indazol-3-yl)propanoic acid] |
| 795 nM | 58% | 263 nM | 79% | O=C(O)CCc1n[nH]c2cc(Cl)c(-c3ccc(-c4cnsc4)cc3)cc12 [Example 65, 3-(6-chloro-5-(4-(isothiazol-4-yl)phenyl)-1H-indazol-3-yl)propanoic acid] |
| 263 nM | 66% | 123 nM | 82% | O=C(O)CCc1n[nH]c2cc(Cl)c(-c3ccc(-c4cccc(Cl)c4O)cc3)cc12 [Example 45, 3-(6-chloro-5-(3′-chloro-2′-hydroxy-[1,1′-biphenyl]-4-yl)-1H-indazol-3-yl)propanoic acid] |
| 204 nM | 52% | 85 nM | 79% | CS(=O)(=O)c1ccc(-c2ccc(-c3cc4c(CCC(=O)O)n[nH]c4cc3Cl)cc2)cc1 [Example 44, 3-(6-chloro-5-(4′-(methylsulfonyl)-[1,1′-biphenyl]-4-yl)-1H-indazol-3-yl)propanoic acid] |
| 389 nM | 38% | 208 nM | 45% | N#Cc1cccc(-c2ccc(-c3cc4c(CCC(=O)O)n[nH]c4cc3Cl)cc2)c1O [Example 55, 3-(6-chloro-5-(3′-cyano-2′-hydroxy-[1,1′-biphenyl]-4-yl)-1H-indazol-3-yl)propanoic acid] |
| 325 nM | 61% | 96 nM | 74% | COc1cc(O)c(-c2ccc(-c3cc4c(CCC(=O)O)n[nH]c4cc3Cl)cc2)c(Cl)c1 [Example 49, 3-(6-chloro-5-(2′-chloro-6′-hydroxy-4′-methoxy-[1,1′-biphenyl]-4-yl)-1H-indazol-3-yl)propanoic acid] |
| 1150 nM | 58% | 480 nM | 73% | O=C(O)CCc1n[nH]c2cc(Cl)c(-c3ccc(-c4ccc(OC(F)F)cc4O)cc3)cc12 [Example 69, 3-(6-chloro-5-(4′-(difluoromethoxy)-2′-hydroxy-[1,1′-biphenyl]-4-yl)-1H-indazol-3-yl)propanoic acid] |
| 367 nM | 9% | 365 nM | 43% | Cc1ccccc1-c1ccc(-c2cc3c(CCC(=O)O)n[nH]c3cc2Cl)cc1 [Example 48, 3-(6-chloro-5-(2′-methyl-[1,1′-biphenyl]-4-yl)-1H-indazol-3-yl)propanoic acid] |
| 426 nM | 63% | 103 nM | 75% | O=C(O)CCc1n[nH]c2cc(Cl)c(-c3ccc(-c4cccc(OC(F)F)c4O)cc3)cc12 [Example 57, 3-(6-chloro-5-(3′-(difluoromethoxy)-2′-hydroxy-[1,1′-biphenyl]-4-yl)-1H-indazol-3-yl)propanoic acid] |
| 1090 nM | 49% | 285 nM | 74% | O=C(O)CCc1n[nH]c2cc(Cl)c(-c3ccc(-c4cc(F)ccc4O)cc3)cc12 [Example 70, 3-(6-chloro-5-(5′-fluoro-2′-hydroxy-[1,1′-biphenyl]-4-yl)-1H-indazol-3-yl)propanoic acid] |
| 248 nM | 62% | 51 nM | 80% | O=C(O)CCCc1n[nH]c2cc(Cl)c(-c3ccc(-c4ccccc4O)cc3)cc12 [Example 43, 4-(6-chloro-5-(2′-hydroxy-[1,1′-biphenyl]-4-yl)-1H-indazol-3-yl)butanoic acid] |
